“And” between values parts separate entries of the source, which are not always exact repeats. Identical values can stand only once.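 Five concentrations, 48 hours, 96-well plates. The concentration for 50% growth inhibition is given as GI50.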 The source made the active and inactive calls. Cut-off read from the data, not from the text of the source: active = GI50 up to about 1.1 µM and inactive = higher. Where a SMILES comes first, the peptide text is derived from it. [ ]: non-standard residue; d: D form. The star is where a group is joined. Iva = CC[C](C)(N)C(=O)O; Boc = CC(C)(C)OC(=O)*; X54 = C1CCC(=NO*)C1 A value given as a limit tells only on which side of the number the result lay.

Test systems include SR; M14; MCF7; NCI-H23; A498; PC-3; NCI-H226; NCI/ADR-RES; SF-295; TK-10; ACHN; HOP-18; DLD-1; LXFL 529; M19-MEL; DMS-114; XF498; KM-20L2; DMS-273; SNB-78.
What all share (assay): NCI-60 cell line screen, 48 h

Turning to `CCC(C)(NC(=O)C(C)NC(=O)OC(C)(C)C)C(=O)NC(C)C(=O)NC(C)(CC)C(=O)ON=C1CCCC1` (stereo not given) (Boc-A[Iva]A[Iva]-X54; configuration not given here), the GI50 with SR, in the test with M14, in the test with MCF7, in the test with NCI-H23, in the test on A498 and in the test with PC-3 was > 100 µM (inactive) each time. The GI50 in the test on NCI-H226, with NCI/ADR-RES and in the test with SF-295 was > 100 µM (inactive) throughout.
Regarding `COc1ccc(-c2c3c(nc4nc(SCC(=O)c5ccc(Br)cc5)nc(N)c24)CCCC3)cc1OC`, the GI50 was > 100 µM (inactive) with TK-10; > 100 µM (inactive) in the test on SR; 41.9 µM (inactive) in the test on M14; > 100 µM (inactive) in the test on MCF7; > 100 µM (inactive) in the test on NCI-H23; > 100 µM (inactive) with ACHN. Also, the GI50 with PC-3 is > 100 µM (inactive); in the test on NCI/ADR-RES, 74.5 µM (inactive); in the test on SF-295, > 100 µM (inactive).
For `COc1ccc(/C=N/n2cnc3c(c2=O)SC(=C(C#N)C#N)N3c2ccccc2)cc1`, the GI50 was > 100 µM (inactive) in the test with TK-10; > 100 µM (inactive) in the test with SR; 50.7 µM (inactive) with HOP-18; > 100 µM (inactive) in the test on NCI-H23; > 100 µM (inactive) in the test with DLD-1; > 100 µM (inactive) in the test with ACHN. The GI50 is > 100 µM (inactive) in the test with NCI-H226, > 100 µM (inactive) in the test on LXFL 529, > 100 µM (inactive) with M19-MEL and 74.5 µM (inactive) with SF-295.
`O=C1C(Cl)N(c2ccc(Cl)cc2)C1c1c[nH]c2ccccc12` (stereo not given): the GI50 is 19.8 µM (inactive) in the test with TK-10; 9.18 µM (inactive) in the test with SR; 18.2 µM (inactive) with M14; 18.4 µM (inactive) with NCI-H23; 14.2 µM (inactive) in the test with DMS-114; 17.5 µM (inactive) in the test on XF498. The GI50 in the test with KM-20L2 is 13.2 µM (inactive); with LXFL 529, 14.1 µM (inactive); with M19-MEL, 24.3 µM (inactive); with SF-295 it was 16.4 µM (inactive).
For the molecule `COc1cc2cc[n+]3c(C)c4cc(OC)c(OC)cc4c([O-])c3c2cc1OC`, the GI50 in the test with TK-10 is > 100 µM (inactive); in the test with SR it was 61 µM (inactive); in the test with M14 it was > 100 µM (inactive); in the test with NCI-H23, 87.7 µM (inactive); with DLD-1, > 100 µM (inactive); in the test with DMS-273, 53.6 µM (inactive). Also, the GI50 with DMS-114 was 30.3 µM (inactive); in the test on A498 it was > 100 µM (inactive); in the test on ACHN, > 100 µM (inactive); in the test with SNB-78 it was > 100 µM (inactive); in the test with NCI-H226, 33.1 µM (inactive); in the test on XF498 it was 22.1 µM (inactive). Further, the GI50 in the test with KM-20L2 was 53.2 µM (inactive); in the test with LXFL 529, 40.1 µM (inactive); with M19-MEL, 46.6 µM (inactive); with SF-295 it was > 100 µM (inactive).
On to `CCOC(=O)c1ccc(N2C(=O)/C(=C/c3ccc(N(CCC#N)CCC#N)cc3)N=C2c2cc([N+](=O)[O-])ccc2Cl)cc1`, for which the GI50 with TK-10, in the test with SR, in the test with HOP-18, in the test on NCI-H23, in the test with DLD-1 and with DMS-273 was > 100 µM (inactive) throughout. Also, the GI50 in the test with DMS-114, with ACHN, in the test with SNB-78, in the test with NCI-H226, in the test with KM-20L2 and in the test on LXFL 529 was > 100 µM (inactive) in each case. Also, the GI50 in the test with M19-MEL and in the test with SF-295 was > 100 µM (inactive) in each case.
As for `CC(C(=O)O)c1cnn(-c2ccccc2)c1-n1cccc1` (stereo not given), the GI50 with MCF7, in the test on HOP-18, with NCI-H23, in the test on DLD-1, with DMS-273 and in the test on A498 was > 100 µM (inactive) in each case. In addition, the GI50 in the test on SNB-78, with NCI-H226, in the test on XF498, with KM-20L2, with M19-MEL and in the test on NCI/ADR-RES was > 100 µM (inactive) throughout. For the same molecule, the GI50 with SF-295 was > 100 µM (inactive).
Consider `C[C@@H]1C[C@]2(C[C@@H](C)[C@H]3C(C[C@@]4(C)CCC[C@@H]5C6=C[C@H](CCC34C)OC6=CC(=O)OC5(C)C)O2)OC1=O` (stereo not given in full), for which the GI50 in the test on MCF7, with HOP-18, in the test on NCI-H23, with DLD-1, in the test on DMS-273 and with DMS-114 was > 51.5 µM (inactive) each time. The GI50 in the test with A498, in the test with SNB-78, in the test with XF498, in the test on KM-20L2, in the test on M19-MEL and in the test on NCI/ADR-RES was > 51.5 µM (inactive) in each case. In addition, the GI50 in the test on SF-295 is > 51.5 µM (inactive).
Take `CC(=O)c1ccc(Oc2ccc(/C(C)=N\N=C(N)N)cc2)cc1`: the GI50 is 3.28 µM (inactive) in the test with TK-10; 1.5 µM (inactive) in the test on M14; 3.75 µM (inactive) in the test on NCI-H23; 3.56 µM (inactive) in the test with DLD-1; 1.43 µM (inactive) in the test with DMS-114; 1.77 µM (inactive) in the test with A498. Also, the GI50 in the test with ACHN was 4.73 µM (inactive); in the test with SNB-78, 2.8 µM (inactive); in the test on KM-20L2 it was 1.71 µM (inactive); in the test with LXFL 529 it was 4.18 µM (inactive); with SF-295 it was 2.38 µM (inactive).
`CC1=NN(C(=O)c2ccc(C)cc2)C(=O)C1/N=N/c1ccccc1C(=O)O` (stereo not given): the GI50 with MCF7, with HOP-18, in the test on NCI-H23, in the test on DLD-1, with DMS-273 and with DMS-114 was > 100 µM (inactive) throughout. Besides, the GI50 in the test on SNB-78 was > 94 µM (inactive); in the test with NCI-H226 it was > 100 µM (inactive); in the test with XF498, 61.8 µM (inactive); with KM-20L2 it was > 100 µM (inactive); with M19-MEL it was > 100 µM (inactive); in the test on NCI/ADR-RES, > 100 µM (inactive). Further, in the test with SF-295, the GI50 was > 92.3 µM (inactive).
As to `OCC(O)COc1ccc(Br)cc1` (stereo not given), the GI50 in the test on TK-10 is > 100 µM (inactive); in the test with SR, 0.0166 µM (active); with M14, > 100 µM (inactive); in the test with HOP-18 it was > 100 µM (inactive); in the test with NCI-H23, > 100 µM (inactive); with DLD-1 it was > 100 µM (inactive). The GI50 with DMS-273, with DMS-114, in the test with A498, with ACHN, in the test on NCI-H226 and in the test on XF498 was > 100 µM (inactive) each time. Also, the GI50 in the test with KM-20L2, with LXFL 529 and with SF-295 was > 100 µM (inactive) in each case.
As for `CCOC(=O)C1=C(C)N(C2OC(COC(C)=O)C(OC(C)=O)C(OC(C)=O)C2OC(C)=O)C(=O)NC1c1ccccc1` (stereo not given), the GI50 with SR, in the test with M14, with HOP-18, with NCI-H23, with DLD-1 and in the test with DMS-114 was > 100 µM (inactive) each time. Also, the GI50 with A498, with ACHN, in the test on SNB-78, in the test with NCI-H226, with KM-20L2 and in the test with LXFL 529 was > 100 µM (inactive) each time. The GI50 in the test with M19-MEL and with SF-295 was > 100 µM (inactive) in each case.
Consider `CC(Oc1ccc(Oc2cnc3ccc(Cl)cc3n2)cc1)C(=O)O` (stereo not given), for which the GI50 in the test with TK-10 was > 100 µM (inactive); with SR, > 44.5 µM (inactive); in the test on M14 it was > 100 µM (inactive); in the test on MCF7, 37.3 µM (inactive) and 84.3 µM (inactive); in the test on NCI-H23, > 100 µM (inactive); in the test on A498, > 80.4 µM (inactive). Also, the GI50 was 60.5 µM (inactive) with ACHN and 98.9 µM (inactive) with SF-295.
On to `COc1cc(C(O)(CC#N)c2cc3c(cc2Br)OCO3)cc(OC)c1OC` (stereo not given), for which the GI50 in the test on TK-10 was 42.8 µM (inactive); in the test with M14, 4.62 µM (inactive); in the test on MCF7 it was 14.7 µM (inactive); with NCI-H23, 51.9 µM (inactive); in the test on ACHN, 92.7 µM (inactive); in the test with PC-3, 28.1 µM (inactive). In addition, the GI50 in the test on NCI-H226 was 30.8 µM (inactive); in the test with NCI/ADR-RES it was 40 µM (inactive); in the test with SF-295, 16.3 µM (inactive).
Regarding `CSc1cc(=O)n2c3ccccc3c3ccnc1c32`, the GI50 in the test with MCF7 was 34.6 µM (inactive); in the test on NCI-H23, > 100 µM (inactive); in the test with DLD-1, 49.7 µM (inactive); in the test with DMS-273 it was 79.6 µM (inactive); in the test with DMS-114, > 100 µM (inactive); with A498, > 91.4 µM (inactive). Also, the GI50 was > 70.8 µM (inactive) in the test with SNB-78; 14.2 µM (inactive) in the test with NCI-H226; > 61.8 µM (inactive) in the test with KM-20L2; > 100 µM (inactive) with M19-MEL; 73.8 µM (inactive) in the test on NCI/ADR-RES; > 65.2 µM (inactive) in the test with SF-295.
Turning to `O=C1C(CO)=C[C@H](O)[C@H]2O[C@@H]12`, the GI50 with MCF7 was 126 µM (inactive); in the test with HOP-18, > 625 µM (inactive); with NCI-H23, 238 µM (inactive); with DLD-1 it was 113 µM (inactive); in the test on DMS-273, 185 µM (inactive); in the test on DMS-114, 137 µM (inactive). The GI50 with A498 is 234 µM (inactive); with SNB-78, 186 µM (inactive); with NCI-H226, 194 µM (inactive); with XF498, 177 µM (inactive); in the test on KM-20L2, 337 µM (inactive); in the test with M19-MEL, 120 µM (inactive). In addition, the GI50 with NCI/ADR-RES was 162 µM (inactive); in the test with SF-295, 84.9 µM (inactive).

(Values after ChEMBL document CHEMBL1201862, “PubChem BioAssay data set” (2004).)
